From ChEMBL document CHEMBL3044687, “Microwave-assisted synthesis of some novel and potent antibacterial and antifungal compounds with biological screening” (2012)

Assays:
Format in all cases: functional
Settings in all cases: read-out: DIZ
Staphylococcus aureus [1] = test: Antibacterial activity against Staphylococcus aureus at 100 ug/ml after 24 hr by disk diffusion method
Staphylococcus aureus [2] = test: Antibacterial activity against Staphylococcus aureus at 50 ug/ml after 24 hr by disk diffusion method
Bacillus subtilis [3] = test: Antibacterial activity against Bacillus subtilis at 100 ug/ml after 24 hr by disk diffusion method
Bacillus subtilis [4] = test: Antibacterial activity against Bacillus subtilis at 200 ug/ml after 24 hr by disk diffusion method
Bacillus subtilis [5] = test: Antibacterial activity against Bacillus subtilis at 50 ug/ml after 24 hr by disk diffusion method
Pseudomonas aeruginosa [6] = test: Antibacterial activity against Pseudomonas aeruginosa at 100 ug/ml after 24 hr by disk diffusion method
Pseudomonas aeruginosa [7] = test: Antibacterial activity against Pseudomonas aeruginosa at 200 ug/ml after 24 hr by disk diffusion method
Pseudomonas aeruginosa [8] = test: Antibacterial activity against Pseudomonas aeruginosa at 50 ug/ml after 24 hr by disk diffusion method
Escherichia coli [9] = test: Antibacterial activity against Escherichia coli at 200 ug/ml after 24 hr by disk diffusion method
Escherichia coli [10] = test: Antibacterial activity against Escherichia coli at 50 ug/ml after 24 hr by disk diffusion method
Escherichia coli [11] = test: Antibacterial activity against Escherichia coli at 100 ug/ml after 24 hr by disk diffusion method
Candida albicans [12] = test: Antifungal activity against Candida albicans at 200 ug/ml after 48 hr by disk diffusion method
Aspergillus niger [13] = test: Antifungal activity against Aspergillus niger at 50 ug/ml after 48 hr by disk diffusion method
Candida albicans [14] = test: Antifungal activity against Candida albicans at 100 ug/ml after 48 hr by disk diffusion method
Candida albicans [15] = test: Antifungal activity against Candida albicans at 50 ug/ml after 48 hr by disk diffusion method
Staphylococcus aureus [16] = test: Antibacterial activity against Staphylococcus aureus at 200 ug/ml after 24 hr by disk diffusion method
Aspergillus niger [17] = test: Antifungal activity against Aspergillus niger at 200 ug/ml after 48 hr by disk diffusion method
Aspergillus niger [18] = test: Antifungal activity against Aspergillus niger at 100 ug/ml after 48 hr by disk diffusion method

Row | SMILES | zone of inhibition at 100 µg/mL (Staphylococcus aureus [1]) | zone of inhibition at 50 µg/mL (Staphylococcus aureus [2]) | zone of inhibition at 100 µg/mL (Bacillus subtilis [3]) | zone of inhibition at 200 µg/mL (Bacillus subtilis [4]) | zone of inhibition at 50 µg/mL (Bacillus subtilis [5]) | zone of inhibition at 100 µg/mL (Pseudomonas aeruginosa [6]) | zone of inhibition at 200 µg/mL (Pseudomonas aeruginosa [7]) | zone of inhibition at 50 µg/mL (Pseudomonas aeruginosa [8]) | zone of inhibition at 200 µg/mL (Escherichia coli [9]) | zone of inhibition at 50 µg/mL (Escherichia coli [10]) | zone of inhibition at 100 µg/mL (Escherichia coli [11]) | zone of inhibition at 200 µg/mL (Candida albicans [12]) | zone of inhibition at 50 µg/mL (Aspergillus niger [13]) | zone of inhibition at 100 µg/mL (Candida albicans [14]) | zone of inhibition at 50 µg/mL (Candida albicans [15]) | zone of inhibition at 200 µg/mL (Staphylococcus aureus [16]) | zone of inhibition at 200 µg/mL (Aspergillus niger [17]) | zone of inhibition at 100 µg/mL (Aspergillus niger [18])
1 | CCN(CC)CN1C(=O)N(c2ccccc2)C(=O)C1(c1ccccc1)c1ccccc1 | 10 mm | 5 mm | 9 mm | 13 mm | 3 mm | 9 mm | 14 mm | 5 mm | 18 mm | 3 mm | 13 mm | 11 mm | 8 mm | 10 mm | 9 mm | 14 mm | 12 mm | 10 mm
2 | O=C1N(c2ccccc2)C(=O)C(c2ccccc2)(c2ccccc2)N1CNc1nccs1 | 10 mm | 4 mm | – | 13 mm | 5 mm | 12 mm | 18 mm | 4 mm | 18 mm | 5 mm | 10 mm | 13 mm | 11 mm | 12 mm | 11 mm | 18 mm | 11 mm | 11 mm
3 | O=C1c2ccccc2C(=O)N1CN1C(=O)N(c2ccccc2)C(=O)C1(c1ccccc1)c1ccccc1 | 6 mm | 4 mm | 10 mm | 14 mm | 4 mm | 8 mm | 10 mm | 5 mm | 20 mm | 5 mm | 12 mm | 20 mm | 12 mm | 16 mm | 15 mm | 9 mm | 16 mm | 15 mm
4 | O=C1NC(c2ccccc2)(c2ccccc2)C(=O)N1CNc1nc2ccccc2s1 | 10 mm | 5 mm | 10 mm | 21 mm | 7 mm | 12 mm | 20 mm | 7 mm | 23 mm | 6 mm | 15 mm | 32 mm | 16 mm | 18 mm | 17 mm | 19 mm | 31 mm | 19 mm
5 | O=C1N(c2ccccc2)C(=O)C(c2ccccc2)(c2ccccc2)N1Cn1cnc2ccccc21 | 10 mm | 5 mm | 13 mm | 18 mm | 5 mm | 8 mm | 12 mm | 4 mm | 18 mm | 6 mm | 12 mm | 32 mm | 16 mm | 24 mm | 16 mm | 12 mm | 32 mm | 19 mm
6 | O=C1NC(c2ccccc2)(c2ccccc2)C(=O)N1Cn1ccnc1 | 11 mm | 6 mm | 11 mm | 15 mm | 5 mm | 10 mm | 20 mm | 6 mm | 22 mm | 6 mm | 16 mm | 30 mm | 15 mm | 24 mm | 17 mm | 20 mm | 19 mm | 17 mm
